ChEMBL document CHEMBL1201862, “PubChem BioAssay data set” (2004)
The source made the active and inactive calls.

What was measured:
[1] = molecular target: Epstein-Barr nuclear antigen 1 (Epstein-Barr virus (strain B95-8) (HHV-4) (Human herpesvirus 4), UniProt P03211); test: inhibition of EBV nuclear antigen 1 DNA binding – biochemical, fluorescence polarization, 1536-well, dose response (AID 2381); design: species or system human gammaherpesvirus 4;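 also: fluorescence polarization of a Cy5 DNA probe bound by EBNA-1 protein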
[2] = molecular target: Lytic switch protein BZLF1 (Epstein-Barr virus (strain B95-8) (HHV-4) (Human herpesvirus 4), UniProt P03206); test: inhibition of BZLF1 ZTA DNA binding – biochemical, fluorescence polarization, Epstein-Barr virus, 1536-well, counter-screen for EBNA-1 inhibitor project, dose response (AID 2377); design: species or system human gammaherpesvirus 4;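 also: fluorescence polarization of Cy5-labelled ZRE DNA probe bound by purified Zta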
[3] = molecular target: Sphingosine 1-phosphate receptor 4 (Homo sapiens, UniProt O95977); test: Late-stage fluorescence dose response cell-based assay to identify agonists of the Sphingosine 1-Phosphate Receptor 4 (S1P4): purchased compounds EC50. [Related pubchem assays (depositor defined):AID1509, AID1523, AID1563, AID1686, AID1701, AID1801]; type: functional
Chain of Sphingosine 1-phosphate receptor 4 (O95977 whole entry): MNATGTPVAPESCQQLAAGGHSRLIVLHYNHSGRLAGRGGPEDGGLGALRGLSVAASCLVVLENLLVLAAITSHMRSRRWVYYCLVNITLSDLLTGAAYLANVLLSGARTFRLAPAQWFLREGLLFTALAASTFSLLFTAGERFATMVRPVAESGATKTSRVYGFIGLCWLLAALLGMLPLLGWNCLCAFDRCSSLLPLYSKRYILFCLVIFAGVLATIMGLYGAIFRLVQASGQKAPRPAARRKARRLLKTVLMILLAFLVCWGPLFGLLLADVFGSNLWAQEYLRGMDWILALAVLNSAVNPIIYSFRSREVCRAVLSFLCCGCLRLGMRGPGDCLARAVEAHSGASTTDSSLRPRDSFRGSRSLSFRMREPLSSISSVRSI

[4] = molecular target: T1, Intestinal-type alkaline phosphatase (Homo sapiens, UniProt P09923); test: human intestinal alkaline phosphatase activators, dose response, biochemical, luminescence, uHTS hits (AID 463120); type: functional
T1 sequence (P09923 whole entry): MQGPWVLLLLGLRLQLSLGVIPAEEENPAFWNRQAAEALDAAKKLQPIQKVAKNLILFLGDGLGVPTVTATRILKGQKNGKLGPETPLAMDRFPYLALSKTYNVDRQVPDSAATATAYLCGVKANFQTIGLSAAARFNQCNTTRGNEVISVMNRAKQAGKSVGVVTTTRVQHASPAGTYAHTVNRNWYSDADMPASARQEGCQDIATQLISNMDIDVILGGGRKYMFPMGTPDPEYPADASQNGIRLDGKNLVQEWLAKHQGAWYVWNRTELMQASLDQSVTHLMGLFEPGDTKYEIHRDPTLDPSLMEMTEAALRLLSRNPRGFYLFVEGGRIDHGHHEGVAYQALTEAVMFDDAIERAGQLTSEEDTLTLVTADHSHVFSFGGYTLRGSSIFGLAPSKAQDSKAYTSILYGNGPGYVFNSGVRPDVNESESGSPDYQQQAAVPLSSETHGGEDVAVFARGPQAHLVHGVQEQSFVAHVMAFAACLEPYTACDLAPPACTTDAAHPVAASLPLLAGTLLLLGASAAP

[5] = molecular target: T1, Intestinal-type alkaline phosphatase; test: Dose Response confirmation of uHTS hits from a small molecule inhibitors of human intestinal alkaline phosphatase via a luminescent assay. [Related pubchem assays (depositor defined):AID2544, AID2574]; type: functional
[6] = PhoP promoter GFP reporter reduction in Typhimurium – purified and synthesized compounds, set 2, PhoP regulon inhibitor project, dose response (AID 2831); type: functional
Vero = test: cells; type: functional; conditions: Chlorocebus sabaeus
Mucolipin-3 = Mucolipin-3 (Homo sapiens, UniProt Q8TDD5); test: Fluorescence counterscreen assay for […] agonists: dose response cell-based high-throughput screening assay to identify agonists of the transient receptor potential channel ML3 (TRPML3). [Related pubchem assays: 1424, 1448 ]; type: functional
[7] = molecular target: T2, Corticotropin-releasing factor receptor 2/Corticotropin-releasing factor-binding protein (Homo sapiens, UniProt P24387+Q13324); test: activators of CRF receptor 2 with binding protein – uHTS hits, confirmation (AID 602473); type: functional; conditions: read-out: EC50_Mean
T2 sequence (Q13324 whole entry): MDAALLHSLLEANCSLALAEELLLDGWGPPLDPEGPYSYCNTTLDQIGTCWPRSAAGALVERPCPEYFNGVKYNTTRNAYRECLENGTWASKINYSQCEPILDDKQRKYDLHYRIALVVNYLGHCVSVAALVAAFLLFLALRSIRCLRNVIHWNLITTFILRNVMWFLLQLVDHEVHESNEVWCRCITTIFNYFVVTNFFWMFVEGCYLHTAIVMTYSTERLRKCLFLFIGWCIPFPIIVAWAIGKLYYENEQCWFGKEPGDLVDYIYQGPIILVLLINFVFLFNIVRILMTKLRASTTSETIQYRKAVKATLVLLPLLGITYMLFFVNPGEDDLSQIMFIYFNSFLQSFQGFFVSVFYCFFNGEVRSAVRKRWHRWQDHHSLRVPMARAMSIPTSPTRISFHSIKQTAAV
T2 sequence (P24387 whole entry): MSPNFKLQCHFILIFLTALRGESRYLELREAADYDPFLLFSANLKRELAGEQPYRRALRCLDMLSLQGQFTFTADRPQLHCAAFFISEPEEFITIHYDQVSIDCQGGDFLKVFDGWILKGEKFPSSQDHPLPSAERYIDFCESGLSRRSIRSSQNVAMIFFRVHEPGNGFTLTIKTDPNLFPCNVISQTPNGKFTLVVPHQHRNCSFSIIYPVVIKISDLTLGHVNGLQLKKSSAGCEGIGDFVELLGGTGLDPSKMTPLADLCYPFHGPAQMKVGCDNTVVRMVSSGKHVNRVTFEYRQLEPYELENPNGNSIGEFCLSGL

Ion channel NompC = Ion channel NompC (Danio rerio, UniProt Q7T1G6); test: Dose response cell-based high-throughput screening assay for agonists of the transient receptor potential channel N1 (TRPN1). [Related pubchem assays (depositor defined):AID1424, AID1448]; type: functional
[8] = molecular target: T3, Zinc finger protein mex-5 (Caenorhabditis elegans, UniProt Q9XUB2); test: potency of MEX-5 RNA-binding blockers – biochemical, C. elegans, fluorescence polarization, dose response (AID 1960)
T3 sequence (Q9XUB2 whole entry): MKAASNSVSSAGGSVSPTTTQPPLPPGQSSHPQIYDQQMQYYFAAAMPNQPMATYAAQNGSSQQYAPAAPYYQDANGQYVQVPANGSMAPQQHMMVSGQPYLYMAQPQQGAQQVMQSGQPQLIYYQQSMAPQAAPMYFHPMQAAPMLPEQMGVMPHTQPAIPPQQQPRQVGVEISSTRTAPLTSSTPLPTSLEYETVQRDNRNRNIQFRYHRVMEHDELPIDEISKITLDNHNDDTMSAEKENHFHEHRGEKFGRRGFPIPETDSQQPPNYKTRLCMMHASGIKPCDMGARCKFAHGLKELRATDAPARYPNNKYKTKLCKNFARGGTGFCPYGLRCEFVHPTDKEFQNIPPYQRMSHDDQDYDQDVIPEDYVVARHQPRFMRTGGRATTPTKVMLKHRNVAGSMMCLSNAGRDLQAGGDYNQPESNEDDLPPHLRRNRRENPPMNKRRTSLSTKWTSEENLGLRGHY

[9] = molecular target: T4, RNA-binding protein pos-1 (Caenorhabditis elegans, UniProt G5EF15); test: disruptors of C. elegans POS-1 RNA interaction – biochemical, fluorescence polarization, dose response (AID 1964);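 also: purified POS-1 fused to maltose binding protein made in E. coli; potency of compounds blocking POS-1 binding to fluorescent RNA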
T4 sequence (G5EF15 whole entry): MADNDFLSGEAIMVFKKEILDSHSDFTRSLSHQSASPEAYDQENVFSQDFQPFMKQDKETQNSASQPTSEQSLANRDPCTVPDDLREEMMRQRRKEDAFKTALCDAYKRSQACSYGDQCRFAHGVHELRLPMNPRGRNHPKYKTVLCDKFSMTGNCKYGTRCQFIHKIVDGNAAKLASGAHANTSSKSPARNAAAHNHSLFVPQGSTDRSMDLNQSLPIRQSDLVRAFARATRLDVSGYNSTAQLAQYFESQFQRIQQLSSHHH

[10] = molecular target: T5, Voltage-gated N-type calcium channel alpha-1B subunit/Amyloid beta A4 precursor protein-binding family A member 1 (Homo sapiens, UniProt Q00975+Q02410); type: protein assay
T5 sequence (Q00975 whole entry): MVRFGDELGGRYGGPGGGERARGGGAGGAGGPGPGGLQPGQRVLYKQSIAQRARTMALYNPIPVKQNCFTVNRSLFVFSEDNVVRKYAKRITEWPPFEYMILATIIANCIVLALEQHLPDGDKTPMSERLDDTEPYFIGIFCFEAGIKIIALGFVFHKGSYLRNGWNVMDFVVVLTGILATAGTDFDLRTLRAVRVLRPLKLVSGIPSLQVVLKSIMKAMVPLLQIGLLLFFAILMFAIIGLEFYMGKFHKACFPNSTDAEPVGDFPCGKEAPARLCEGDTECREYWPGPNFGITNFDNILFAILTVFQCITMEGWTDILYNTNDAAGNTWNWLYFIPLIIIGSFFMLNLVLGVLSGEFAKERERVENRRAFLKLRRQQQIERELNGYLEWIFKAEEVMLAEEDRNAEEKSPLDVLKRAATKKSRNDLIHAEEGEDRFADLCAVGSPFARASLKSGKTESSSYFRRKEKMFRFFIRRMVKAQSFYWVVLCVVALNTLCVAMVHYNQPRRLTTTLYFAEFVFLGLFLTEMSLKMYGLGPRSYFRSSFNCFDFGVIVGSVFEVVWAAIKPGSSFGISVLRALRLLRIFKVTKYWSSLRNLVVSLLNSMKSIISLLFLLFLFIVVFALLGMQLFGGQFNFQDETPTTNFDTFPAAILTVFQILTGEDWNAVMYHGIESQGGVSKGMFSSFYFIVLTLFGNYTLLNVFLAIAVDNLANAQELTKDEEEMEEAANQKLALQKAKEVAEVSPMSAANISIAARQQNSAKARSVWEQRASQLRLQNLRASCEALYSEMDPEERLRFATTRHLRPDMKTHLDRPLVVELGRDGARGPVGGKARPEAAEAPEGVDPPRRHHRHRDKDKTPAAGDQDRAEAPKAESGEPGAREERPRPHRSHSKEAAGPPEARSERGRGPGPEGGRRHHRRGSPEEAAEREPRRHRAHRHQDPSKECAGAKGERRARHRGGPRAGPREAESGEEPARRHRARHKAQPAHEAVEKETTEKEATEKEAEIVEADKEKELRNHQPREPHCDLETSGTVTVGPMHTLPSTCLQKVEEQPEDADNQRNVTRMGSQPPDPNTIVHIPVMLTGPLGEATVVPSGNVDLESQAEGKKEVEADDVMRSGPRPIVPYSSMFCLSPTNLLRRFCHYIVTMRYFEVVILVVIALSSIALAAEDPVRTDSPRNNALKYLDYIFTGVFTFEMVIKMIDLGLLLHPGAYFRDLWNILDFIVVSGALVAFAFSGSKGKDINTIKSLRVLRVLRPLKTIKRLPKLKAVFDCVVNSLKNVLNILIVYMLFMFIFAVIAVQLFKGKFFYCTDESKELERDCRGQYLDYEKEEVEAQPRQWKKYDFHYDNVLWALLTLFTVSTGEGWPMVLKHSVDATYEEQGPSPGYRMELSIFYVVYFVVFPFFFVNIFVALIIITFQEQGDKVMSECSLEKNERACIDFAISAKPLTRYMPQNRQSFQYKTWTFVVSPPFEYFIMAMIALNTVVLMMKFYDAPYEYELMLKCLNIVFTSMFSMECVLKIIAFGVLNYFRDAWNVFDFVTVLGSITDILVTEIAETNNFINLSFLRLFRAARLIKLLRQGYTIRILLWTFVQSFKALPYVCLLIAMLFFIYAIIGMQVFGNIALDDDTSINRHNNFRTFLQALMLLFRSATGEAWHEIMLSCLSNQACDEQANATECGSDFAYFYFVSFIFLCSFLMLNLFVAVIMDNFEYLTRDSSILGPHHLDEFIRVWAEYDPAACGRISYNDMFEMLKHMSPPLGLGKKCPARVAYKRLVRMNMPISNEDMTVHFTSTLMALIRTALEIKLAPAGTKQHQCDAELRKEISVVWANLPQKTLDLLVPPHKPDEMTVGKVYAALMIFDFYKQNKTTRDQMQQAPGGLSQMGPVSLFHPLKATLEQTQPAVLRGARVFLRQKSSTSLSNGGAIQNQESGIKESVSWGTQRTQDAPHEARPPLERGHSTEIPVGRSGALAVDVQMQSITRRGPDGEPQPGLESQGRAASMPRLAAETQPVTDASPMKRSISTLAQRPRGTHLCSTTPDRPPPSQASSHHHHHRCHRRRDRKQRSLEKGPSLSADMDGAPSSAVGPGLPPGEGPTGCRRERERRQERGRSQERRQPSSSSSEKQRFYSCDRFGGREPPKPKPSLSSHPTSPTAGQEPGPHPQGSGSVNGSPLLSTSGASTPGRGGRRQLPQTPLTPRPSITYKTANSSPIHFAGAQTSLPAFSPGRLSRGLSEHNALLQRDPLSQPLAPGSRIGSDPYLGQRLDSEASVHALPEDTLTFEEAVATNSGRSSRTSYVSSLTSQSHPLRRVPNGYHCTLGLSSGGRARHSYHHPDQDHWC
T5 sequence (Q02410 whole entry): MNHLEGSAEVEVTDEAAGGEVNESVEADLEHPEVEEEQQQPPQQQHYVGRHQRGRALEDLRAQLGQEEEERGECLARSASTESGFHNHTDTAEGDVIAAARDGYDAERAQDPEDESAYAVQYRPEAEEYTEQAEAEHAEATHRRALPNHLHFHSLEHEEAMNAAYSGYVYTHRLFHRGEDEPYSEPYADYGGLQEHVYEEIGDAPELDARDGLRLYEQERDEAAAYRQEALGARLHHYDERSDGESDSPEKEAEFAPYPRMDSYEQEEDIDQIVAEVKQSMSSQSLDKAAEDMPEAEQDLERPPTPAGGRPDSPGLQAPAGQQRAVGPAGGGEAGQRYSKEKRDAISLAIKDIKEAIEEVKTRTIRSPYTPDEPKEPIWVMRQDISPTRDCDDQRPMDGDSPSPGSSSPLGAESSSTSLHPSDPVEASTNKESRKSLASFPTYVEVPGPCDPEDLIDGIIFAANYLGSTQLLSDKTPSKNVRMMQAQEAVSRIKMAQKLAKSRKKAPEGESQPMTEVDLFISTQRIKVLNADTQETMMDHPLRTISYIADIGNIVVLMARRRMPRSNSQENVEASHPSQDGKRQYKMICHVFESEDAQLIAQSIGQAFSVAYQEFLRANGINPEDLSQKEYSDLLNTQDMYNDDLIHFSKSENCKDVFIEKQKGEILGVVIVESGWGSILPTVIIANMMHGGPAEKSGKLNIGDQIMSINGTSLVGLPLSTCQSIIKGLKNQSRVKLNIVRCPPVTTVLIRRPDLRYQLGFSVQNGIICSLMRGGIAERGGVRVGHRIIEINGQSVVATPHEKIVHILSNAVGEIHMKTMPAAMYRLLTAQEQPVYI

SUMO-activating enzyme [11] = molecular target: T6, SUMO-activating enzyme (Homo sapiens, UniProt Q9UBT2); test: blockers of UBC9-mediated SUMO conjugation – biochemical, AlphaScreen, SUMOylation inhibitor project, confirmation (AID 2018); type: functional
T6 sequence (Q9UBE0 whole entry): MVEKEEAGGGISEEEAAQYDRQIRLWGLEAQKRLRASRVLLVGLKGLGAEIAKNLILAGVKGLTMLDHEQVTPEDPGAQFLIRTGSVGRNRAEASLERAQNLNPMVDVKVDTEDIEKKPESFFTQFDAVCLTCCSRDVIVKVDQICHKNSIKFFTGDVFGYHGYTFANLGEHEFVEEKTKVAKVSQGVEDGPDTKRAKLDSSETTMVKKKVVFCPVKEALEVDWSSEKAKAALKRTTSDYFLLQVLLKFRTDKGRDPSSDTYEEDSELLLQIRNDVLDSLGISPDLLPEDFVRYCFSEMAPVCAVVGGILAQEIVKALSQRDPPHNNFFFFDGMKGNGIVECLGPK
T6 sequence (Q9UBT2 whole entry): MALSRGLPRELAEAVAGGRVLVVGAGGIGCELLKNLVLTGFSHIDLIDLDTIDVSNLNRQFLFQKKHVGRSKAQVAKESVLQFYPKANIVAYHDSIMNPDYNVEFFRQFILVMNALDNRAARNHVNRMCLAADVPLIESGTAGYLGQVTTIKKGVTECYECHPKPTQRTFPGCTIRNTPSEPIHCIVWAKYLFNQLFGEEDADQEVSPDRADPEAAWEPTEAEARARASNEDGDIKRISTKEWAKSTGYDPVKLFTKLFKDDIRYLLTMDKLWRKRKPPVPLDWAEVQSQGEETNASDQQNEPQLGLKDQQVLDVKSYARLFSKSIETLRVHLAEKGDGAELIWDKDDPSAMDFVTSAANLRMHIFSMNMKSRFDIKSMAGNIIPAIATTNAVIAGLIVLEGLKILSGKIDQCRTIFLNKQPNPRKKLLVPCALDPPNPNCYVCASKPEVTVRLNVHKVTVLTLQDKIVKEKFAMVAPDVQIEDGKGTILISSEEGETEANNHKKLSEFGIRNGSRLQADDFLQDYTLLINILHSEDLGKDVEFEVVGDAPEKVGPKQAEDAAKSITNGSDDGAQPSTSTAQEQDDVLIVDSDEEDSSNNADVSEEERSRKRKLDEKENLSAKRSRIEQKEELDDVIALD

[12] = molecular target: T5, Voltage-gated N-type calcium channel alpha-1B subunit/Amyloid beta A4 precursor protein-binding family A member 1; type: protein assay; remark: listed apart in the source
SUMO-activating enzyme [13] = molecular target: T6, SUMO-activating enzyme; test: blockers of SAE1/SAE2–UBC9 SUMO transfer – biochemical, HTRF, uHTS, primary screen (AID 2006); type: protein-complex assay
[14] = molecular target: Induced myeloid leukemia cell differentiation protein Mcl-1 (Homo sapiens, UniProt Q07820); type: functional

With `Cc1nn(Cc2ccccc2)c(Cl)c1C(=O)OC(C)C(=O)Nc1ccc(F)cc1Cl` (configuration not stated) the IC50 [1] was 5.89 µM (active), the IC50 [2] was > 111 µM (not active) and the EC50 [3] was > 50 µM (inactive).

With `CC1(C)C[C@@H](O)CC2(C1)C[C@]1(C)CC(O)[C@H]2C(C)(C)C1` (some centres not stated) the EC50 [4] was > 100 µM (inactive) and the IC50 [5] was > 100 µM (inactive).

For `O=C1C2=C(Nc3ccccc3SC2c2cccc(Cl)c2)c2ccccc21` (configuration not stated), the IC50 [6] was > 150 µM (active).

With `Cc1ccc(S(=O)(=O)Nc2ccc(NC(=O)c3c(F)c(F)c(F)c(F)c3F)cc2)cc1` the CC50 (Vero) was 23 µM (active), the EC50 (Mucolipin-3) was > 29.9 µM (not active) and the EC50 [7] was 5.66 µM (active). For the same molecule, the EC50 (Ion channel NompC) was > 29.9 µM (inactive).

For `COc1cc(OC)c2c(O)c3c(c(-c4c5c(c(O)c6c(OC)cc(OC)cc46)CO[C@@H](C)[C@H]5O)c2c1)[C@H](O)[C@H](C)OC3`, the EC50 [8] was > 300 µM (not active), the EC50 [9] was > 300 µM (not active) and the IC50 [10] was 20.3 µM (active). The IC50 (SUMO-activating enzyme [11]) was 6.03 µM (active), the IC50 [12] was 4.27 µM (active) and the IC50 (SUMO-activating enzyme [13]) was 17.1 µM (active). For the same molecule, the IC50 [14] was 2.51 µM (not active).
